Data on one molecule can be found in patent US20080119561A1, “METHODS FOR PREVENTING OR DELAYING CATHETER- BASED RESVASCULARIZATION” (Pfizer Inc, priority 1998, published 2008).

For series [1], the system named is patients with CAD and LDL-C≧130 mg/dL. Conditions: atorvastatin 80 mg.
Method: This is an 18-month, open-label, randomized, multicenter study in 341 patients with elevated LDL-C (≧130 mg/dL whether or not they are receiving lipid-lowering medication) who have had angiography. […] Patients must be Class I or II based on the Canadian Cardiovascular Society classification of angina severity, and must be able to complete 4 minutes of a Bruce protocol treadmill test, or a 20-W/min supine bicycle exercise test.
The study is conducted in patients with LDL-C≧130 mg/dL and TG≦400 mg/dL who have asymptomatic or mildly to moderately symptomatic CAD (with or without antianginal therapy) and in whom a recanalization procedure is recommended. “Usual care” represents a heterogeneous mix of therapies that may include calcium channel blocker use or lipid-lowering therapy (including diet, behavior modification or antihyperlipidemic medication). Patients who have undergone angiography, or are about to undergo angiography, will be considered for this study based on the results of the angiogram and other inclusion criteria. The study will be performed using a common protocol at all study sites. […]
All patients will be randomized to either Group 1 or Group 2 according to a randomization code. […] Usual care will be determined by the investigator or the patient's primary physician (or whoever typically decides the patient's follow-up care) as he or she sees fit. […]
In series [2] the test system is hypercholesterolemic patients. Conditions: 2.5 to 80 mg/day, 6 weeks; cited from earlier work.
The test system of series [3] is cholesterol-fed male New Zealand White rabbits. The conditions noted are these: 8 weeks, compared to progression controls; cited from earlier work.
The subject of a further series is subjects and patients. The conditions noted are these: over 400 subjects and patients; cited from earlier work.

Take `CC(C)c1c(C(=O)Nc2ccccc2)c(-c2ccccc2)c(-c2ccc(F)cc2)n1CC[C@@H](O)C[C@@H](O)CC(=O)O` [atorvastatin]: in series [1] (over 18 months, angioplasty group 21%), the “patients who encountered an adverse heart event” value came to 13%. In series [1] (from 140 mg/dL before treatment), the “LDL cholesterol on treatment, average” value is on record as 77 mg/dL. For the same molecule, in series [2], the “HDL-C, apolipoprotein AI (apo AI) or Lp (a)” value is “No significant changes”; the “apolipoprotein B (apo B)” value is listed as “significantly reduced”; the “drug-related serious adverse events” value was “no drug-related serious adverse events”; the “reduction of TG levels” value is “up to 32%”. Besides, the total cholesterol entry in series [2] was “significantly reduced”. Besides, in series [3], the “percentage of discernible thoracic aortic lesions” value is recorded as “reduced”; the “reduction of extracellular matrix and smooth muscle cell area” value was 63%; the “reduction of size of iliac-femoral lesions” value is “approximately 68%”. In addition, in the series on subjects and patients, the “most frequently occurring adverse events” value is “headache, infection (mostly colds), constipation, and back pain”.
